Experimental data: patent publication US20260285850A1, “SUBSTITUTED OXAZOLIDINONES AND IMIDAZOLINONES AS HERBICIDES” (FMC CORPORATION, priority 2023, published 2026)

Key:
Assay type in all cases: in vivo
[1] = tested on: barnyardgrass (Echinochloa crus-galli); experiment: Test A preemergence soil spray, visual injury rating 0-100; details: 10 days, 0 = no effect, 100 = complete control
How it was run: (§1)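 Rating: visual, day 10, untreated plants as reference, 0 no effect to 100 full control. Plants were in loam-sand and were treated either preemergence via directed soil spray or postemergence at the one- to two-leaf stage.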

[2] = tested on: blackgrass (Alopecurus myosuroides); experiment: as above; details: 10 days, 0 = no effect, 100 = complete control
How it was run: as §1

corn (Zea mays) [3] = experiment: as above; details: 10 days, 0 = no effect, 100 = complete control
How it was run: as §1

[4] = tested on: green foxtail (Setaria viridis); experiment: as above; details: 10 days, 0 = no effect, 100 = complete control
How it was run: as §1

kochia (Bassia scoparia) [5] = experiment: as above; details: 10 days, 0 = no effect, 100 = complete control
How it was run: as §1

[6] = tested on: oat, wild (wild oat, Avena fatua); experiment: as above; details: 10 days, 0 = no effect, 100 = complete control
How it was run: as §1

[7] = tested on: palmer (palmer amaranth, palmer pigweed, Amaranthus palmeri); experiment: as above; details: 10 days, 0 = no effect, 100 = complete control
How it was run: as §1

[8] = tested on: ragweed (common ragweed, Ambrosia artemisiifolia); experiment: as above; details: 10 days, 0 = no effect, 100 = complete control
How it was run: as §1

soybean (Glycine max) [9] = experiment: as above; details: 10 days, 0 = no effect, 100 = complete control
How it was run: as §1

[10] = tested on: wheat (Triticum aestivum); experiment: as above; details: 10 days, 0 = no effect, 100 = complete control
How it was run: as §1

[11] = tested on: barnyardgrass (Echinochloa crus-galli); experiment: Test A postemergence application, visual injury rating 0-100; details: 10 days
How it was run: as §1

[12] = tested on: blackgrass (Alopecurus myosuroides); experiment: as above; details: 10 days
How it was run: as §1

corn (Zea mays) [13] = experiment: as above; details: 10 days
How it was run: as §1

[14] = tested on: galium (catchweed bedstraw, Galium aparine); experiment: as above; details: 10 days
How it was run: as §1

[15] = tested on: green foxtail (Setaria viridis); experiment: as above; details: 10 days
How it was run: as §1

[16] = tested on: horseweed (Erigeron canadensis); experiment: as above; details: 10 days
How it was run: as §1

kochia (Bassia scoparia) [17] = experiment: as above; details: 10 days
How it was run: as §1

[18] = tested on: oat, wild (wild oat, Avena fatua); experiment: as above; details: 10 days
How it was run: as §1

[19] = tested on: palmer (palmer amaranth, palmer pigweed, Amaranthus palmeri); experiment: as above; details: 10 days
How it was run: as §1

[20] = tested on: ragweed (common ragweed, Ambrosia artemisiifolia); experiment: as above; details: 10 days
How it was run: as §1

[21] = tested on: ryegrass, Italian (italian ryegrass, Lolium multiflorum); experiment: as above; details: 10 days
How it was run: as §1

soybean (Glycine max) [22] = experiment: as above; details: 10 days
How it was run: as §1

[23] = tested on: wheat (Triticum aestivum); experiment: as above; details: 10 days
How it was run: as §1

[24] = tested on: barnyardgrass (Echinochloa crusgalli); experiment: Test B flooded paddy test, visual plant response rating 0-100; details: 250 g ai/ha, Flood, applied to paddy water, evaluated after 13 days
How it was run: (§2)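 Treatment occurs at the 2-leaf stage by adding compound to floodwater standing 3 cm above the soil, a level kept for the whole test. Plants stay in the greenhouse 13 days before visual comparison with controls.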

[25] = tested on: ducksalad (Heteranthera limosa); experiment: as above; details: 250 g ai/ha, Flood, applied to paddy water, evaluated after 13 days
How it was run: as §2

rice (Oryza sativa) = experiment: as above; details: 250 g ai/ha, Flood, applied to paddy water, evaluated after 13 days
How it was run: as §2

[26] = tested on: sedge, umbrella (small-flower umbrella sedge, Cyperus difformis); experiment: as above; details: 250 g ai/ha, Flood, applied to paddy water, evaluated after 13 days
How it was run: as §2

[27] = 31 g ai/ha, postemergence, 0 = no effect, 100 = complete control
[28] = Postemergence, 125 g ai/ha, 0 is no effect, 100 is complete control

CC(C)OC(=O)C1=CCC(NC(=O)C2(C)CN(c3cc(F)cc(F)c3)C(=O)O2)C1 (centres unmarked) [Compound 5]
Barnyardgrass plant response rating (0-100) ([1]; 31 g ai/ha): 0
Barnyardgrass plant response rating (0 to 100 scale) ([1]; 125 g ai/ha): 100
Blackgrass plant response rating (0-100) ([2]; 31 g ai/ha): 30
Blackgrass plant response rating (0 to 100 scale) ([2]; 125 g ai/ha): 40
Corn plant response rating (0-100) (corn (Zea mays) [3]; 31 g ai/ha): 0
Corn plant response rating (0 to 100 scale) (corn (Zea mays) [3]; 125 g ai/ha): 50
Foxtail, Green plant response rating (0-100) ([4]; 31 g ai/ha): 20
Foxtail, Green plant response rating (0 to 100 scale) ([4]; 125 g ai/ha): 100
Kochia plant response rating (0-100) (kochia (Bassia scoparia) [5]; 31 g ai/ha): 0
Kochia plant response rating (0 to 100 scale) (kochia (Bassia scoparia) [5]; 125 g ai/ha): 90
Oat, Wild plant response rating (0-100) ([6]; 31 g ai/ha): 20
Oat, Wild plant response rating (0 to 100 scale) ([6]; 125 g ai/ha): 90
Amaranth, Palmer plant response rating (0-100) ([7]; 31 g ai/ha): 20
Amaranth, Palmer plant response rating (0 to 100 scale) ([7]; 125 g ai/ha): 100
Ragweed plant response rating (0-100) ([8]; 31 g ai/ha): 0
Ragweed plant response rating (0 to 100 scale) ([8]; 125 g ai/ha): 0
Soybean plant response rating (0-100) (soybean (Glycine max) [9]; 31 g ai/ha): 0
Soybean plant response rating (0 to 100 scale) (soybean (Glycine max) [9]; 125 g ai/ha): 60
Wheat plant response rating (0-100) ([10]; 31 g ai/ha): 0
Wheat plant response rating (0 to 100 scale) ([10]; 125 g ai/ha): 80
Barnyardgrass plant response rating (0-100) [11, 27]: 100
Barnyardgrass plant response rating (0 to 100 scale) [11, 28]: 100
Blackgrass plant response rating (0-100) [12, 27]: 50
Blackgrass plant response rating (0 to 100 scale) [12, 28]: 90
Corn plant response rating (0-100) (corn (Zea mays) [13]; [27]): 60
Corn plant response rating (0 to 100 scale) (corn (Zea mays) [13]; [28]): 100
Galium plant response rating (0-100) [14, 27]: 80
Galium plant response rating (0 to 100 scale) [14, 28]: 80
Foxtail, Green plant response rating (0-100) [15, 27]: 30
Foxtail, Green plant response rating (0 to 100 scale) [15, 28]: 90
Horseweed plant response rating (0-100) [16, 27]: 10
Horseweed plant response rating (0 to 100 scale) [16, 28]: 50
Kochia plant response rating (0-100) (kochia (Bassia scoparia) [17]; [27]): 30
Kochia plant response rating (0 to 100 scale) (kochia (Bassia scoparia) [17]; [28]): 80
Oat, Wild plant response rating (0-100) [18, 27]: 90
Oat, Wild plant response rating (0 to 100 scale) [18, 28]: 90
Amaranth, Palmer plant response rating (0-100) [19, 27]: 40
Amaranth, Palmer / Pigweed, Palmer plant response rating (0 to 100 scale) [19, 28]: 50
Ragweed plant response rating (0-100) [20, 27]: 50
Ragweed plant response rating (0 to 100 scale) [20, 28]: 70
Ryegrass, Italian plant response rating (0-100) [21, 27]: 60
Ryegrass, Italian plant response rating (0 to 100 scale) [21, 28]: 90
Soybean plant response rating (0-100) (soybean (Glycine max) [22]; [27]): 60
Soybean plant response rating (0 to 100 scale) (soybean (Glycine max) [22]; [28]): 70
Wheat plant response rating (0-100) [23, 27]: 90
Wheat plant response rating (0 to 100 scale) [23, 28]: 90
Plant response rating, Barnyardgrass (0 to 100 scale, 0 is no effect and 100 is complete control) [24]: 65
Plant response rating, Ducksalad (0 to 100 scale, 0 is no effect and 100 is complete control) [25]: 80
Plant response rating, Rice (0 to 100 scale, 0 is no effect and 100 is complete control) (rice (Oryza sativa)): 20
Plant response rating, Sedge, Umbrella (0 to 100 scale, 0 is no effect and 100 is complete control) [26]: 95
